According to US6265423A, “Aromatic polycyclic retinoid-type derivatives, method for preparing same, and use thereof for making pharmaceutical and cosmetic compositions” (priority 1996, dated 2001):
Entries after “also recorded” stand apart in the source; their conditions may differ.

Assays:
Format in all cases: cell-based
[1] = tested on: human mammary tumoral lineage T-47D; experiment: Clonogenic test (soft agar), growth of cellular colonies; settings: T-47D; for activity at 0.01 µM / activity at 0.001 µM / activity at 0.0001 µM / activity at 0.1 µM: Homo sapiens, T47D, 504 h, 21 days, control = 100%, read-out: mean number of cellular colonies in relation to control; for activity at 0.01 µM: 10^-8 M; for activity at 0.001 µM: 10^-9 M; for activity at 0.0001 µM: 10^-10 M; for effect on growth of cellular colonies (in words): soft agar; for activity at 0.1 µM: 10^-7 M
Method in brief: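 T-47D cells of over 90% viability were seeded in 0.3% agar over a 0.5% agar base and kept at 37 °C with 5% CO2 for 21 days after treatment. After staining with MTT (1 mg/ml, at least 3 h), colonies larger than 100 μm² were counted microscopically and expressed as a percentage of control.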

Gal4-RARβ = experiment: Transactivation, chimerical receptor Gal4-RARβ (transitory transfection of HeLa); settings: 100% = TTNPB 10^-8 M
Gal4-RARγ = experiment: Transactivation, chimerical receptor Gal4-RARγ (transitory transfection of HeLa); settings: 100% = TTNPB 10^-8 M
RARβ-ERcassette = experiment: Transactivation, chimerical receptor RARβ-ERcassette (HeLa); settings: TTNPB 10^-8 M = 100
Method in brief: (§1)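 HeLa cells were transiently co-transfected by calcium phosphate co-precipitation with […] chimeric receptor plasmid (RAR DNA-binding C domain replaced by the oestrogen receptor's; A, B, D, E, F regions kept), […] ERE-luciferase reporter and […] CMV-β-galactosidase control. Compounds were applied 24 h later for 16 h.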

RARγ-ERcassette = experiment: Transactivation, chimerical receptor RARγ-ERcassette (HeLa); settings: TTNPB 10^-8 M = 100
Method in brief: as §1

[2] = tested on: response element RARE of RARβ gene, endogenic retinoic receptors, HRLN lineage; experiment: HRLN transactivation (RARE-luciferase, stably transfected HeLa); settings: for Emax: Homo sapiens, HeLa, read-out: HRLN transactivation, E max
Method in brief: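 HeLa cells stably carrying a RARE3-tk-Luc reporter (natural RARβ RARE, GGTTCAnnnnnAGTTCA) report activation by endogenous RARs/RXRs. Assays run in duplicate in phenol red-free DMEM with 3% dextran-charcoal-treated FCS, protected from light; luciferase read-out.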

[3] = tested on: RAR-ERcassettes (RARα, RARβ, RARγ); experiment: Chimerical receptors RAR-ERcassettes, overall profile
Method in brief: as §1

SMILES	activity at 0.01 µM [1]	activity at 0.001 µM [1]	activity at 0.0001 µM [1]	effect on growth of cellular colonies (in words) [1]	GAL4-RAR RARβ transactivation (Gal4-RARβ; 10^-6 M)	GAL4-RAR RARγ transactivation (Gal4-RARγ; 10^-6 M)	RAR-ERcassette RARβ transactivation (RARβ-ERcassette; 10^-6 M)	RAR-ERcassette RARβ transactivation (RARβ-ERcassette; 10^-7 M)	RAR-ERcassette RARβ transactivation (RARβ-ERcassette; 10^-8 M)	RAR-ERcassette RARγ transactivation (RARγ-ERcassette; 10^-6 M)	RAR-ERcassette RARγ transactivation (RARγ-ERcassette; 10^-7 M)	RAR-ERcassette RARγ transactivation (RARγ-ERcassette; 10^-8 M)	HRLN transactivation (in words) [2]	Emax [2]	RAR-ERcassette profile (in words) [3]	activity at 0.1 µM [1]	GAL4-RAR RARβ transactivation (Gal4-RARβ; 10^-7 M)	GAL4-RAR RARγ transactivation (Gal4-RARγ; 10^-7 M)	GAL4-RAR RARβ transactivation (Gal4-RARβ; 10^-8 M)	GAL4-RAR RARγ transactivation (Gal4-RARγ; 10^-8 M)
CC1(C)CCC(C)(C)c2cc(/C=C(\c3ccc(C(=O)O)cc3)C(F)(F)F)ccc21 [CB36493, (E) 4-[1-trifluoromethyl-2-(5,6,7,8-tetrahydro-5,5,8,8-tetramethyl-2-naphthalenyl)-1-ethenyl]benzoic acid]	17.4 ± 2%	24.8 ± 0.5%	35.8 ± 3.2%	as active as the reference products CB13407 (9-cis RA) and LGD1069	44%	50%	205%	34%	0%	26%	5%	0%	induce a transactivation close to that of TTNPB	97%	induce a transactivation mediated by the three receptors	–	–	–	–	–
C/C(=C/c1ccc2c(c1)C(C)(C)CCC2(C)C)c1ccc(C(=O)O)cc1 [CB28628, reference compound]	97.6%	89.2%	–	strongly and significantly inhibits the growth of the cellular colonies at the concentration of 10^-7 M but very rapidly loses its activity beyond the concentration of 10^-8 M	–	–	183%	115%	88%	92%	87%	55%	–	98%	complete agonist for RARγ-ERcassetteand induce an over-activation of RARα-ERcassette and RARβ-ERcassette at 1 μM	21.4%	102%	106%	–	–
Cc1cc2c(cc1C(=O)c1ccc(C(=O)O)cc1)C(C)(C)CCC2(C)C [LGD-CB14499, reference compound]	–	–	–	–	9%	13%	130%	58%	10%	66%	31%	13%	–	–	transcriptional power appears higher notably through the RARβ-ERcassette	–	1%	0%	0%	0%
C/C(=C/c1ccc2c(c1)C(C)(C)CCC2(C)C)c1ccc(-c2nnn[nH]2)cc1 [CB92834]	38 ± 2%	58.9 ± 3.7%	82.5 ± 12%	global inhibiting and dose dependent activity as great as that obtained with the best products in the trans series (E)	0%	2%	43%	36%	0%	0%	7%	2%	very feebly active	21%	do not permit transactivation mediated by RARα-ERcassette and RARγ-cassette. However, a partial transactivation of RARβ-ERcassette is observed; also recorded: with a specific RAR agonist permits an over-activation of the effect of the RAR molecule alone for the three RAR-ERcassette receptors	–	–	–	–	–
C/C(=C/c1ccc2c(c1)C(C)(C)CCC2(C)C)c1ccc(C(=O)O)cn1 [CB38416, (Z) 2-[1-(5,6,7,8-tetrahydro-5,5,8,8-tetramethyl-2-naphthalenyl)-2-propenyl]pyridinyl-5-carboxylic acid]	15.3 ± 1.7%	20 ± 0.2%	–	as active as the reference products CB13407 (9-cis RA) and LGD1069	51%	99%	198%	57%	10%	62%	14%	4%	induce a transactivation close to that of TTNPB	81%	induce a transactivation mediated by the three receptors	11.6 ± 1.9%	–	–	–	–
C/C(=C/c1ccc2c(c1)C(C)(C)CCC2(C)C)c1ccc(C(=O)O)nc1 [CB16279, (Z) 5-[1-(5,6,7,8-tetrahydro-5,5,8,8-tetramethyl-2-naphthalenyl)-2-propenyl]pyridinyl-2-carboxylic acid]	–	110 ± 1.5%	–	does not induce any significant modification in the growth of the cellular colonies	47%	59%	118%	60%	–	71%	15%	–	induce a transactivation close to that of TTNPB	–	induce a transactivation mediated by the three receptors	102 ± 3.4%	–	–	–	–
CC1(C)CCC(C)(C)c2cc(/C=C(\c3ccc(-c4nnn[nH]4)cc3)C(F)(F)F)ccc21 [CB77402, (E) 5-[4-[1-trifluoromethyl-2-(5,6,7,8-tetrahydro-5,5,8,8-tetramethyl-2-naphthalenyl)-1-ethenyl]phenyl]-1H-tetrazole]	–	–	–	–	0%	0%	37%	31%	0%	8%	0%	0%	very feebly active	18%	do not permit transactivation mediated by RARα-ERcassette and RARγ-cassette. However, a partial transactivation of RARβ-ERcassette is observed; also recorded: with a specific RAR agonist permits an over-activation of the effect of the RAR molecule alone for the three RAR-ERcassette receptors	–	–	–	–	–
